# Reference: patent US6872749B2, “Method for supplying bioavailable methionine to a cow” (Adisseo Ireland Limited, priority 1998, dated 2005)
# Columns and labels:
# [1] = Bioavailability of esters of methionine after spot dose to cows (Example 2); assay type: in vivo, cow
# Procedure: The bioavailability of the esters was evaluated.
# The samples were stored in a freezer.
# The procedure of (b1) was repeated using 72 g of methionine ethyl ester hydrochloride, prepared as detailed above
# • cyclohexyl methioninate: 122 g • methionine methyl ester hydrochloride: 73 g • sec butyl methioninate: 72 g
# [2] = bovine, in vivo
# Procedure: Spot doses of the following amounts of the esters prepared as detailed above, equating to 50 g of methionine equivalent, were given to 2 cows in the manner described in Example 2(b1) above. • methyl ester of HMB: 64.8 g • ethyl ester of HMB: 74.8 g • isopropyl ester of HMB: 80.5 g • n-butyl ester of HMB: 96 g • cyclohexyl ester of HMB: 97.5 g • see butyl ester of HMB: 79 g The concentration of methionine and HMB was measured over a period of 27 hours.
# 56 g of methyl methioninate and 72 g of n-propyl methioninate (providing an equivalent 50 g of DL-methionine), prepared as detailed above, were supplied to two cows as a spot dose at 7.45 am just before the morning feed.
# The ration given to the cows was distributed as two equal meals at 08.00 hours and 16.00 hours comprised 7 kg of hay and 2 kg concentrate.
# Samples of blood were taken by jugular vein puncture 09.00, 10.00, 11.00, 13.00 and 15.00 hours on the day where the ester was given to the animal and at 09.00, 12.00 and 15.00 hours on the day before and two days after supply.
# The plasma from each sample was isolated from the blood samples by centrifuging the blood at 3000 revs per minute for 10 minutes. The samples were stored in a freezer. The assay for methionine was carried out according to the standard procedure of Moore and Stein.
# The results were plotted using the conventional AUC method wherein the areas under the curves are calculated to obtain the bioavailability values for each ester.
SMILES,"[met] methionine concentration in blood plasma ([1]; bovine, in vivo, 0 h)","[met] methionine concentration in blood plasma ([1]; bovine, in vivo, 1 h)","[met] methionine concentration in blood plasma ([1]; bovine, in vivo, 2 h)","[met] methionine concentration in blood plasma ([1]; bovine, in vivo, 3 h)","[met] methionine concentration in blood plasma ([1]; bovine, in vivo, 5 h)","[met] methionine concentration in blood plasma ([1]; bovine, in vivo, 7 h)","[met] methionine concentration in blood plasma ([1]; bovine, in vivo, 28 h)","Bioavailability % ([1]; bovine, in vivo, po) [%]","[met] methionine concentration in blood plasma ([1]; 0 hours after administration, spot dose equivalent to 50 g methionine, 2 cows)","[met] methionine concentration in blood plasma ([1]; 1 hour after administration, spot dose equivalent to 50 g methionine, 2 cows)","[met] methionine concentration in blood plasma ([1]; 2 hours after administration, spot dose equivalent to 50 g methionine, 2 cows)","[met] methionine concentration in blood plasma ([1]; 3 hours after administration, spot dose equivalent to 50 g methionine, 2 cows)","[met] methionine concentration in blood plasma ([1]; 5 hours after administration, spot dose equivalent to 50 g methionine, 2 cows)","[met] methionine concentration in blood plasma ([1]; 7 hours after administration, spot dose equivalent to 50 g methionine, 2 cows)","[met] methionine concentration in blood plasma ([1]; 28 hours after administration, spot dose equivalent to 50 g methionine, 2 cows)","Bioavailability % ([1]; AUC method, spot dose equivalent to 50 g methionine) [%]",Bioavailability [2] [%],"methionine equivalent provided to the cow by rumen absorption ([1]; bovine, in vivo)","time after intake within which methionine is provided to the blood stream ([1]; bovine, in vivo)"
CCCCOC(=O)[C@@H](N)CCSC [n-butyl methioninate],0.32 mg/100 g of blood plasma,1.10 mg/100 g of blood plasma,0.74 mg/100 g of blood plasma,0.63 mg/100 g of blood plasma,0.62 mg/100 g of blood plasma,0.61 mg/100 g of blood plasma,0.27 mg/100 g of blood plasma,8,–,–,–,–,–,–,–,–,–,–,–
CCCCCCOC(=O)[C@@H](N)CCSC [n-hexyl methioninate],0.31 mg/100 g of blood plasma,1.22 mg/100 g of blood plasma,0.92 mg/100 g of blood plasma,0.94 mg/100 g of blood plasma,1.06 mg/100 g of blood plasma,1.07 mg/100 g of blood plasma,0.35 mg/100 g of blood plasma,17,–,–,–,–,–,–,–,–,–,–,–
"CCCCCCCCCCCCOC(=O)[C@@H](N)CCSC [Dodecyl methioninate, dodecyl methioninate]",0.33 mg/100 g of blood plasma,0.38 mg/100 g of blood plasma,0.37 mg/100 g of blood plasma,0.37 mg/100 g of blood plasma,0.44 mg/100 g of blood plasma,0.45 mg/100 g of blood plasma,0.28 mg/100 g of blood plasma,3,–,–,–,–,–,–,–,–,–,–,–
CCOC(=O)[C@H](CCSC)NC(C)=O [ethyl N-acetyl methioninate],–,–,–,–,–,–,–,–,0.26 mg/100 g of blood plasma,1.84 mg/100 g of blood plasma,1.97 mg/100 g of blood plasma,1.53 mg/100 g of blood plasma,1.12 mg/100 g of blood plasma,0.86 mg/100 g of blood plasma,0.36 mg/100 g of blood plasma,20,–,–,–
CCCCOC(=O)C(O)CCSC (centres unmarked) [n-butyl ester of HMB],–,–,–,–,–,–,–,–,–,–,–,–,–,–,–,–,17,–,–
"CSCC[C@H](N)C(=O)OC1CCCCC1 [Cyclohexyl methioninate, cyclohexyl methioninate]",0.29 mg/100 g of blood plasma,2.55 mg/100 g of blood plasma,2.27 mg/100 g of blood plasma,1.88 mg/100 g of blood plasma,1.61 mg/100 g of blood plasma,1.55 mg/100 g of blood plasma,0.38 mg/100 g of blood plasma,35,–,–,–,–,–,–,–,–,–,–,–
CSCCC(O)C(=O)OC1CCCCC1 (centres unmarked) [cyclohexyl ester of HMB],–,–,–,–,–,–,–,–,–,–,–,–,–,–,–,–,20,–,–
CCCCCCCCCCCCCCCCCCOC(=O)[C@@H](N)CCSC [n-octadecyl methioninate],0.37 mg/100 g of blood plasma,0.37 mg/100 g of blood plasma,0.37 mg/100 g of blood plasma,0.34 mg/100 g of blood plasma,0.37 mg/100 g of blood plasma,0.31 mg/100 g of blood plasma,0.38 mg/100 g of blood plasma,1,–,–,–,–,–,–,–,–,–,–,–
"CSCC[C@H](N)C(=O)OC(C)(C)C [Tertiary butyl methioninate, tertiary butyl methioninate]",0.37 mg/100 g of blood plasma,4.84 mg/100 g of blood plasma,4.87 mg/100 g of blood plasma,4.98 mg/100 g of blood plasma,4.39 mg/100 g of blood plasma,4.19 mg/100 g of blood plasma,0.76 mg/100 g of blood plasma,80,–,–,–,–,–,–,–,–,–,approximately 80%,less than one

# More lines, now with the values ahead:
"[met] methionine concentration in blood plasma ([1]; bovine, in vivo, 0 h)","[met] methionine concentration in blood plasma ([1]; bovine, in vivo, 1 h)","[met] methionine concentration in blood plasma ([1]; bovine, in vivo, 2 h)","[met] methionine concentration in blood plasma ([1]; bovine, in vivo, 3 h)","[met] methionine concentration in blood plasma ([1]; bovine, in vivo, 5 h)","[met] methionine concentration in blood plasma ([1]; bovine, in vivo, 7 h)","[met] methionine concentration in blood plasma ([1]; bovine, in vivo, 28 h)","Bioavailability % ([1]; bovine, in vivo, po) [%]","[met] methionine concentration in blood plasma ([1]; 0 hours after administration, spot dose equivalent to 50 g methionine, 2 cows)","[met] methionine concentration in blood plasma ([1]; 1 hour after administration, spot dose equivalent to 50 g methionine, 2 cows)","[met] methionine concentration in blood plasma ([1]; 2 hours after administration, spot dose equivalent to 50 g methionine, 2 cows)","[met] methionine concentration in blood plasma ([1]; 3 hours after administration, spot dose equivalent to 50 g methionine, 2 cows)","[met] methionine concentration in blood plasma ([1]; 5 hours after administration, spot dose equivalent to 50 g methionine, 2 cows)","[met] methionine concentration in blood plasma ([1]; 7 hours after administration, spot dose equivalent to 50 g methionine, 2 cows)","[met] methionine concentration in blood plasma ([1]; 28 hours after administration, spot dose equivalent to 50 g methionine, 2 cows)","Bioavailability % ([1]; AUC method, spot dose equivalent to 50 g methionine) [%]",Bioavailability [2] [%],"methionine equivalent provided to the cow by rumen absorption ([1]; bovine, in vivo)","time after intake within which methionine is provided to the blood stream ([1]; bovine, in vivo)",SMILES
0.34 mg/100 g of blood plasma,4.08 mg/100 g of blood plasma,3.87 mg/100 g of blood plasma,3.25 mg/100 g of blood plasma,2.57 mg/100 g of blood plasma,2.51 mg/100 g of blood plasma,0.41 mg/100 g of blood plasma,51,–,–,–,–,–,–,–,–,–,–,–,"COC(=O)[C@@H](N)CCSC [Methyl methioninate, methyl methioninate]"
0.35 mg/100 g of blood plasma,2.75 mg/100 g of blood plasma,2.49 mg/100 g of blood plasma,2.39 mg/100 g of blood plasma,1.75 mg/100 g of blood plasma,1.56 mg/100 g of blood plasma,0.44 mg/100 g of blood plasma,28,–,–,–,–,–,–,–,–,–,–,–,CCC(C)OC(=O)[C@@H](N)CCSC (some centres unmarked) [sec butyl methioninate]
0.36 mg/100 g of blood plasma,2.78 mg/100 g of blood plasma,2.60 mg/100 g of blood plasma,2.30 mg/100 g of blood plasma,2.00 mg/100 g of blood plasma,1.43 mg/100 g of blood plasma,0.38 mg/100 g of blood plasma,30,–,–,–,–,–,–,–,–,–,–,–,"CCOC(=O)[C@@H](N)CCSC.Cl [Methionine ethyl ester hydrochloride, methionine ethyl ester hydrochloride]"
0.41 mg/100 g of blood plasma,1.96 mg/100 g of blood plasma,1.43 mg/100 g of blood plasma,1.27 mg/100 g of blood plasma,1.18 mg/100 g of blood plasma,1.22 mg/100 g of blood plasma,0.43 mg/100 g of blood plasma,25,–,–,–,–,–,–,–,–,–,–,–,"COC(=O)[C@@H](N)CCSC.Cl [Methionine methyl ester hydrochloride, methionine methyl ester hydrochloride]"
–,–,–,–,–,–,–,–,–,–,–,–,–,–,–,–,31,–,–,CCC(C)OC(=O)C(O)CCSC (centres unmarked) [Sec butyl ester of HMB]
0.32 mg/100 g of blood plasma,2.29 mg/100 g of blood plasma,1.70 mg/100 g of blood plasma,1.55 mg/100 g of blood plasma,1.27 mg/100 g of blood plasma,1.14 mg/100 g of blood plasma,0.32 mg/100 g of blood plasma,22,–,–,–,–,–,–,–,–,–,–,–,CCCOC(=O)[C@@H](N)CCSC [n-propyl methioninate]
